Source: US12577240B2, “Antiviral heteroaryl ketone derivatives” (Pfizer Inc., priority 2020, dated 2026)

Columns and labels:
[1] = biological target: T1, full length SARS-CoV-2 3CL protease (Severe acute respiratory syndrome coronavirus 2, UniProt P0DTD1); test: SARS-CoV-2 Coronavirus 3C Protease FRET Assay; assay type: biochemical; conditions: 15 nM enzyme, 25 μM peptide substrate, 60 minutes at 23° C., Morrison equation fit; read-out: FRET Assay Geometric Mean Ki
T1 construct: measures the activity of full length SARS-CoV-2 3CL protease

[2] = test system: SARS-CoV-2 (USA_WA1/2020) in VeroE6 cells enriched for hACE2 expression; test: Antiviral Activity from SARS-CoV-2 Infection (cytopathic effect, Cell Titer-Glo cell viability); assay type: cell-based; conditions: Severe acute respiratory syndrome coronavirus 2, Vero C1008, 72 h; VeroE6 cells enriched for hACE2, multiplicity of infection 0.002, 3-day incubation; alone or with 2 μM CP-100356 (table does not say which); read-out: Antiviral Assay Geometric Mean EC50

Row | SMILES | Ki [1] [nM] | EC50 [2] [nM]
1 | CC(C)[C@H](NS(C)(=O)=O)C(=O)N1CC2(CC2)C[C@H]1C(=O)N[C@@H](C[C@@H]1CCNC1=O)C(=O)c1nc2ccccc2s1 [Example 1, (6S)—N-{(2S)-1-(1,3-Benzothiazol-2-yl)-1-oxo-3-[(3S)-2-oxopyrrolidin-3-yl]propan-2-yl}-5-{(2S)-3-methyl-2-[(methylsulfonyl)amino]butanoyl}-5-azaspiro[2.4]heptane-6-carboxamide] | 20.2 | 5680
2 | COc1cccc2[nH]c(C(=O)N3C[C@H]4[C@@H]([C@H]3C(=O)N[C@@H](C[C@@H]3CCNC3=O)C(=O)c3nc5ccccc5s3)C4(C)C)cc12 [Example 2, (1R,2S,5S)—N-{(2S)-1-(1,3-Benzothiazol-2-yl)-1-oxo-3-[(3S)-2-oxopyrrolidin-3-yl]propan-2-yl}-3-[(4-methoxy-1H-indol-2-yl)carbonyl]-6,6-dimethyl-3-azabicyclo[3.1.0]hexane-2-carboxamide] | 206 | 
3 | CC(C)[C@H](NS(C)(=O)=O)C(=O)N1C[C@H]2[C@@H]([C@H]1C(=O)N[C@@H](C[C@@H]1CCNC1=O)C(=O)c1nc3c(C(F)(F)F)cccc3s1)C2(C)C [Example 4, (1R,2S,5S)-6,6-Dimethyl-3-[N-(methylsulfonyl)-L-valyl]-N-{(2S)-1-oxo-3-[(3S)-2-oxopyrrolidin-3-yl]-1-[4-(trifluoromethyl)-1,3-benzothiazol-2-yl]propan-2-yl}-3-azabicyclo[3.1.0]hexane-2-carboxamide] | 7.74 | 
4 | CC(C)(C)OC(=O)N[C@H](C(=O)N1C[C@H]2[C@@H]([C@H]1C(=O)N[C@@H](C[C@@H]1CCNC1=O)C(=O)c1nc3ccccc3s1)C2(C)C)C(C)(C)C [Example 6, tert-Butyl {(2S)-1-[(1R,2S,5S)-2-({(2S)-1-(1,3-benzothiazol-2-yl)-1-oxo-3-[(3S)-2-oxopyrrolidin-3-yl]propan-2-yl}carbamoyl)-6,6-dimethyl-3-azabicyclo[3.1.0]hexan-3-yl]-3,3-dimethyl-1-oxobutan-2-yl}carbamate] | 137 | 492
5 | CC1(C)[C@@H]2[C@@H](C(=O)N[C@@H](C[C@@H]3CCNC3=O)C(=O)c3nc4ccccc4s3)N(C(=O)[C@H]3CCCO3)C[C@@H]21 [Example 8, (1R,2S,5S)-N-{(2S)-1-(1,3-benzothiazol-2-yl)-1-oxo-3-[(3S)-2-oxopyrrolidin-3-yl]propan-2-yl}-6,6-dimethyl-3-[(2R)-tetrahydrofuran-2-ylcarbonyl]-3-azabicyclo[3.1.0]hexane-2-carboxamide] | 6330 | 
6 | O=C1NCC[C@H]1C[C@H](NC(=O)[C@@H]1CC2(CC2)CN1C(=O)[C@H]1CCCO1)C(=O)c1nc2ccccc2s1 [Example 9, (6S)-N-{(2S)-1-(1,3-benzothiazol-2-yl)-1-oxo-3-[(3S)-2-oxopyrrolidin-3-yl]propan-2-yl}-5-[(2R)-tetrahydrofuran-2-ylcarbonyl]-5-azaspiro[2.4]heptane-6-carboxamide] | > 10000 | 
7 | CC(C)[C@H](NS(=O)(=O)C1CC1)C(=O)N1C[C@H]2[C@@H]([C@H]1C(=O)N[C@@H](C[C@@H]1CCNC1=O)C(=O)c1nc3ccccc3s1)C2(C)C [Example 10, (1R,2S,5S)-N-{(2S)-1-(1,3-benzothiazol-2-yl)-1-oxo-3-[(3S)-2-oxopyrrolidin-3-yl]propan-2-yl}-3-[N-(cyclopropylsulfonyl)-L-valyl]-6,6-dimethyl-3-azabicyclo[3.1.0]hexane-2-carboxamide] | 19.6 | 
8 | CC(C)(C)[C@H](NS(=O)(=O)C(C)(C)C)C(=O)N1C[C@H]2[C@@H]([C@H]1C(=O)N[C@@H](C[C@@H]1CCNC1=O)C(=O)c1nc3ccccc3s1)C2(C)C [Example 11, (1R,2S,5S)-N-{(2S)-1-(1,3-benzothiazol-2-yl)-1-oxo-3-[(3S)-2-oxopyrrolidin-3-yl]propan-2-yl}-3-[N-(tert-butylsulfonyl)-3-methyl-L-valyl]-6,6-dimethyl-3-azabicyclo[3.1.0]hexane-2-carboxamide] | 13.7 | 155
9 | CC(C)[C@H](NS(=O)(=O)C(C)(C)C)C(=O)N1C[C@H]2[C@@H]([C@H]1C(=O)N[C@@H](C[C@@H]1CCNC1=O)C(=O)c1nc3ccccc3s1)C2(C)C [Example 12, (1R,2S,5S)-N-{(2S)-1-(1,3-benzothiazol-2-yl)-1-oxo-3-[(3S)-2-oxopyrrolidin-3-yl]propan-2-yl}-3-[N-(tert-butylsulfonyl)-L-valyl]-6,6-dimethyl-3-azabicyclo[3.1.0]hexane-2-carboxamide] | 34.2 | 
10 | CC(C)C(=O)N[C@H](C(=O)N1C[C@H]2[C@@H]([C@H]1C(=O)N[C@@H](C[C@@H]1CCNC1=O)C(=O)c1nc3ccccc3s1)C2(C)C)C(C)(C)C [Example 14, (1R,2S,5S)-N-{(2S)-1-(1,3-benzothiazol-2-yl)-1-oxo-3-[(3S)-2-oxopyrrolidin-3-yl]propan-2-yl}-6,6-dimethyl-3-[3-methyl-N-(2-methylpropanoyl)-L-valyl]-3-azabicyclo[3.1.0]hexane-2-carboxamide] | 6.02 | 
11 | CCC(=O)N[C@H](C(=O)N1C[C@H]2[C@@H]([C@H]1C(=O)N[C@@H](C[C@@H]1CCNC1=O)C(=O)c1nc3ccccc3s1)C2(C)C)C(C)(C)C [Example 15, (1R,2S,5S)-N-{(2S)-1-(1,3-benzothiazol-2-yl)-1-oxo-3-[(3S)-2-oxopyrrolidin-3-yl]propan-2-yl}-6,6-dimethyl-3-(3-methyl-N-propanoyl-L-valyl)-3-azabicyclo[3.1.0]hexane-2-carboxamide] | 6.14 | 
12 | CCS(=O)(=O)N[C@H](C(=O)N1C[C@H]2[C@@H]([C@H]1C(=O)N[C@@H](C[C@@H]1CCNC1=O)C(=O)c1nc3ccccc3s1)C2(C)C)C(C)C [Example 16, (1R,2S,5S)-N-{(2S)-1-(1,3-benzothiazol-2-yl)-1-oxo-3-[(3S)-2-oxopyrrolidin-3-yl]propan-2-yl}-3-[N-(ethylsulfonyl)-L-valyl]-6,6-dimethyl-3-azabicyclo[3.1.0]hexane-2-carboxamide] | 10.3 | 
13 | CC(C)(C)C(=O)N[C@H](C(=O)N1C[C@H]2[C@@H]([C@H]1C(=O)N[C@@H](C[C@@H]1CCNC1=O)C(=O)c1nc3ccccc3s1)C2(C)C)C(C)(C)C [Example 17, (1R,2S,5S)-N-{(2S)-1-(1,3-benzothiazol-2-yl)-1-oxo-3-[(3S)-2-oxopyrrolidin-3-yl]propan-2-yl}-3-[N-(2,2-dimethylpropanoyl)-3-methyl-L-valyl]-6,6-dimethyl-3-azabicyclo[3.1.0]hexane-2-carboxamide] | 99.1 | 584
14 | CC(C)(C)[C@H](NS(C)(=O)=O)C(=O)N1C[C@H]2[C@@H]([C@H]1C(=O)N[C@@H](C[C@@H]1CCNC1=O)C(=O)c1nc3ccccc3s1)C2(C)C [Example 18, (1R,2S,5S)-N-{(2S)-1-(1,3-benzothiazol-2-yl)-1-oxo-3-[(3S)-2-oxopyrrolidin-3-yl]propan-2-yl}-6,6-dimethyl-3-[3-methyl-N-(methylsulfonyl)-L-valyl]-3-azabicyclo[3.1.0]hexane-2-carboxamide] | 1.55 | 129
15 | CC(=O)N[C@H](C(=O)N1C[C@H]2[C@@H]([C@H]1C(=O)N[C@@H](C[C@@H]1CCNC1=O)C(=O)c1nc3ccccc3s1)C2(C)C)C(C)(C)C [Example 19, (1R,2S,5S)-3-(N-acetyl-3-methyl-L-valyl)-N-{(2S)-1-(1,3-benzothiazol-2-yl)-1-oxo-3-[(3S)-2-oxopyrrolidin-3-yl]propan-2-yl}-6,6-dimethyl-3-azabicyclo[3.1.0]hexane-2-carboxamide] | 9.77 | 1330
16 | CC1(C)C[C@@H](C(=O)N[C@@H](C[C@@H]2CCNC2=O)C(=O)c2nc3ccccc3s2)N(C(=O)[C@H]2CCCO2)C1 [Example 20, N-{(2S)-1-(1,3-benzothiazol-2-yl)-1-oxo-3-[(3S)-2-oxopyrrolidin-3-yl]propan-2-yl}-4,4-dimethyl-1-[(2R)-tetrahydrofuran-2-ylcarbonyl]-L-prolinamide] | > 10800 | 
